Reference: patent publication US20250346643A1, “TROPOMYOSIN KINASE RECEPTOR (TRK) LIGANDS AS THERAPEUTICS TO SUPPORT LIVER REGENERATION” (Vanderbilt University, priority 2024, published 2025)
Where two headings read alike, the source gives them in different places.

Tests used:
[1] = system: CCND1; assay: Western blot of CCND1 in HepG2 cell lysates; assay type: cell-based, human
Experimental: Human HepG2 and mouse AML12 cells were grown in 6-well plates. Cells were treated with NTF3 (20 ng/ml) purchased from STEMCELL technologies, Vancouver, Canada (cat. 78074), R&D Systems, Minneapolis, MN (267-N3), Gibco, Waltham, MA (PHC7036) and/or Loxo-195 (5-10 nM) (Selleckchem, Houston, TX; S8636) in complete growth media without L-glutamine for 2 hours. Lyophilized NTF3 was solubilized with sterile filtered PBS supplemented with 0.1% BSA, aliquoted and stored at −80° C. until use. […] HepG2 and AML12 cells were collected on ice in PBS, centrifuged for 10 sec […] cell pellet homogenized in RIPA buffer containing inhibitors (Roche, Basel, Switzerland; complete Mini proteinase inhibitor, 1×HALT phosphatase inhibitors, Thermo Scientific, Waltham, MA; cat. 78428). Cell lysates were sonicated and centrifuged for 10 min at 18,800×g. Protein concentration of supernatants were determined by Direct Detect Spectrophotometer (MilliporeSigma, Burlington, MA).
For immunoblot analysis, 30-50 μg of protein diluted in LSD sample buffer (Invitrogen, Waltham, MA) were analyzed per SDS-PAGE (NuPAGE™, Invitrogen, Waltham, MA) using MOPS buffer or MES buffer (Invitrogen, Waltham, MA). Gels were stained with Coomassie (Bio-Safe Coomassie G-250 Stain, Bio-Rad, Hercules, CA) and transferred onto PVDF membranes using semi-dry blotting (Trans-Blot SD, Bio-Rad, Hercules, CA). Images were visualized on an Amersham™ Imager 680 (Cytiva, Marlborough, MA). Semi-quantitative band densitometry was performed using ImageJ software (version 1.53).

[2] = system: liver regeneration after partial hepatectomy; assay type: in vivo, mouse
Experimental: Partial hepatectomy. All surgeries were performed per the National Institutes of Health recommendations contained in the Guide for the Care and Use of Laboratory. Mice were anesthetized with isoflurane and received preoperative extended-release buprenorphine subcutaneous (s.c.) for analgesia and eye ointment for protection. […] The evisceration of the median and left lateral lobes allowed suture ligation and ˜70% hepatectomy. Skin and abdominal muscles were closed in a two-step procedure. Mice were euthanized 1 h, 24 h, 2 days, 3 days, and 4 days after partial hepatectomy, and tissues were collected for processing. To test if recombinant NTF3 promotes liver regeneration, mice were injected intravenous (i.v.) with recombinant NTF3 (STEMCELL Technologies, Vancouver, Canada; catalog no. 78074, lot nos. 1000070683 and 1000077434) diluted in sterile 0.9% saline (0.9% NaCl) or vehicle only at approximately 1 hour prior to partial hepatectomy. Mice were then injected i.v. once per day with recombinant NTF3 or vehicle at 20 ng/g body weight until sacrifice. Lyophilized NTF3 was solubilized in 0.1% BSA/PBS (Sigma-Aldrich, St. Louis, MO; A3059) and stored at −80° C. until use.
Serum chemistry. Whole blood was collected in blood collection tubes supplemented with lithium heparin (BD vacutainer, Franklin Lakes, NJ; Cat.366664). Blood was centrifuged at 4000 g for 15 min and the plasma collected and stored at −80° C. until analysis. Plasma was analyzed on a VetScan® vs2 (Abaxis, Union City, CA) using mammalian liver profile analysis discs (Abaxis, Union City, CA; 500-0040) according to the manufacturer's instructions.
Immunohistochemistry. For immunohistochemistry, formalin-fixed paraffin-embedded (FFPE) sections were cut at a 4-μm thickness, and slides were incubated at 65° C. for 30 min. Slides were deparaffinized in Histo-Clear® (National Diagnostics, Charlotte, NC; HS2001GLL) and rehydrated by an ethanol gradient. Heat antigen retrieval was performed in 10 mM sodium citrate (pH 6.0) in a pressure cooker (Cuisinart®, CPC-600C), for 20 min at high pressure, natural pressure release for 30 min, and cooled at room temperature for 30 min. Endogenous peroxidase quenching was performed with 1.5% hydrogen peroxide (Sigma-Aldrich, St. Louis, MO; H1009) for 20 min, and slides were washed twice in PBS. Blocking was performed for 30 min with Protein Block, Serum-free (Agilent, Santa Clara, CA; X090930-2). The primary antibody was diluted in antibody diluent (Agilent, Santa Clara, CA; S080983-2) and applied to the slides in a wet chamber overnight at 4° C. After two washes in PBS, slides were incubated with the appropriate secondary antibody for 30 min, followed by two washes in PBS. […] The same reveal time was then used on all experimental slides. Slides were stained with hematoxylin (Sigma-Aldrich, St. Louis, MO; GHS332) for 30 s, washed gently in lukewarm tap water for 5 min, and washed twice in distilled water, followed by two washes in PBS (pH 7.4). Slides were washed in increasing ethanol/water gradients, followed by three washes in Histo-Clear®. Whole-slide scans for subsequent analyses and publishing were obtained using an SCN400 slide scanner (Leica, Wetzlar, Germany). Whole-slide images were processed and annotated in QuPath 0.5.1.

[3] = 2 days after partial hepatectomy, NTF3 20 ng/g i.v. once per day
[4] = 4 days after partial hepatectomy, NTF3 20 ng/g i.v. once per day

For “NTF3: neurotrophin-3, recombinant protein; HSC-derived hepatocyte mitogen, ligand of TRKA, TRKB, TRKC”, the “CCND1 amounts, NTF3 from three different vendors” value ([1]; HepG2 (FIG. 9K-L)) was “CCND1 amounts increased”, the CCND1 abundance ([1]; HepG2, NTF3 20 ng/ml, 2 hours (FIG. 8I-J)) was “increased CCND1 abundance” and the “liver to body weight ratio vs vehicle” value [2, 3] was “similar”. The “number of Ki67+ hepatocytes vs vehicle” value [2, 3] was “significantly increased”, the “number of Ki67+ hepatocytes vs vehicle” value ([2]; 4 days after partial hepatectomy) was “increased number” and the “liver to body weight ratio vs controls” value [2, 4] was “significantly increased”. For the same substance, the “relative increase of liver to body weight ratio compared to controls” value [2, 4] was 10-23%, the adverse effects ([2]; mouse, in vivo) was “no adverse effects” and the “serum ALP vs vehicle” value ([2]; mouse, in vivo) was “similar”. For the same substance, the “serum ALT vs vehicle” value ([2]; mouse, in vivo) was “similar” and the “serum albumin vs vehicle” value ([2]; mouse, in vivo) was “similar”.
